Results on one compound are retold here after US20240391876A1 (priority 2021, published 2024).

The test system of one data set is SARS-COV-2. The data set can be described thus: Cytopathic effect (CPE) assay against COVID-19 in Vero E6 cells, neutral red uptake. The conditions noted are these: 2 μg/mL quinacrine, 120 h p.i., at the 30% cytotoxic concentration. It is filed as cell-based. The procedure:
The cytoprotective effect of quinacrine was determined by the cell viability, which is measured by the uptake of neutral red dye at A540.
In this study, the antiviral efficiency of quinacrine was evaluated against COVID-19 in vitro. Antiviral activity was evaluated using a cytopathic effect (CPE) assay, which determines the ability of the compound to prevent viral CPE in African green monkey kidney cells, Vero E6. Four dilutions of the test compound were evaluated, and the effective antiviral concentration was determined by regression analysis. The cytotoxicity of the test compound was determined in parallel by the neutral red cell cytotoxicity assay, a common method used to detect cell viability or drug cytotoxicity. CPE was determined by the uptake of neutral red dye. Quinacrine protects more than 80% of the infected cells from the cytopathic effects caused by COVID-19 at 2 μg/mL concentration (FIG. 8). The tissue distribution of quinacrine was investigated in a previous study by treating mice daily by oral gavage with 30 mg/kg of quinacrine (35% v/v ethanol in distilled water) dissolved in 100 μL total volume for 28 days.

Data set [1] relates to Influenza A/California/07/2009 (H1N1). The data set can be described thus: Cytopathic effect (CPE) assay against Influenza A (H1N1), neutral red uptake. The data set is classed as cell-based, Influenza A virus. The settings on record: 2 μg/mL quinacrine; three days incubation.
For the next data set, the system named is RET G-quadruplex. The data set can be described thus: Taq DNA polymerase stop assay. The data set is classed as biochemical. The settings on record: quinacrine 0, 0.5, 1.0 and 2.0 μM. The procedure: DNA polymerase stop assay was performed at increasing concentrations of each drug. Lanes M represents the di-deoxy sequencing G-reactions with the same template, which serves as the marker to locate the exact stop site. Bands P, S, and F represent the position of the free primer, stop products by G-quadruplex structures, and full-length products, respectively, on the gel.
The G4-stabilizing effect of quinacrine was validated with the RET G4 as a model G4 using a DNA polymerase stop assay and CD spectroscopic studies. In this assay, the ligand mediated stabilization of the G-quadruplex structure arising from the DNA template prevents the progression of the Taq DNA polymerase during primer extension.

A further data set relates to RET G4. The data set can be described thus: CD spectroscopy and CD melting curve of RET G4. It is filed as binding. The procedure: In both graphs in FIG. 6, at the 260 wavelength lines in descending order are 20° C., 30° C., 40° C., 50° C., 60° C., 70° C., 80° C., and 90° C.
Quinacrine was further investigated as to whether it stabilizes the RET G4 structure using circular dichroism (CD) spectroscopic analysis. […] Next, the thermal stability of the G-quadruplex structure was examined by monitoring the CD melting curve in the absence and presence of quinacrine (5 equivalent) at increasing temperatures.

Data set [2] concerns COVID-19 RNA G4s (SG1 and SG2). The data set can be described thus: UV-Vis absorption spectra of quinacrine with RNA G4. It is filed as binding, SARS-COV-2. The settings on record: SG1, SG2 at different concentrations; 10 mM Tris-HCl pH 7.6, 5 mM NaCl, 50 mM KCl. From the text:
UV-Vis spectroscopy is the most common and convenient technique to study the interaction between small molecules with nucleic acids, including RNA G4. Molecules containing aromatic chromophore groups interact with RNA G4, and the molecular interaction can be studied based on the changes in the absorption spectra. The hypochromic effect is a spectral property for RNA G4-drug interactions that are closely related to the G4 structure. […] With the addition of G4 RNA, the intensity at both 350 nm and 450 nm bands decreased, inducing the hypochromicity at these wavelengths (FIG. 7). This can be attributed to the decrease in the number of chromophores in solution due to the interaction of quinacrine with RNA G4.

Data set [3] concerns COVID-19. The data set can be described thus: Intravenous administration of quinacrine to a COVID-19 patient (Example 2). It is filed as in vivo, human. On the procedure: The following example describes treatment strategies for COVID-19 involving an intravenous administration of Quinacrine to a patient.
A person wakes up one morning with a fever of 102.4° F. and a tightness in their chest. They are an essential hospital worker and so believes they may have contracted COVID-19. Therefore, they call their primary care physician to determine their next steps. The primary care physician decides that they should be brought in for testing since they are at a higher risk for complications because the patient has severe asthma. The person gets a nose swab for the test. The doctor mentions that they will call the patient with the results as soon as possible. For now, the person is told to self-isolate and to monitor any changes in symptoms, calling if things get progressively worse. Quickly the person's condition deteriorates, and they begin to experience difficulty breathing and pressure in their chest. The doctor admits them to the ICU of the hospital because they require supplemental oxygen to maintain their oxygen levels. Shortly after being admitted to the ICU, the result of their test comes back positive for COVID-19. The ICU doctor gives the patient an intravenous injection of 200 mg initially every 6 hours for 5 doses, followed by 100 mg 3 times a day for 6 days. Alternatively, 100 mg is administered via IV infusion 3 times a day for 5 to 7 days. […]

For data set [4], the system named is COVID-19. The data set can be described thus: Oral administration of quinacrine to a COVID-19 patient (Example 3). It is filed as in vivo, human. The procedure: The following example describes treatment strategies for COVID-19 involving an oral administration of Quinacrine.
Recently, a COVID-19 test for a person has come back positive. […] After a week at the hospital, the patient's symptoms show no signs of improvement. The doctors at the hospital prescribe to the patient an initial 200 mg dose orally every 6 hours for 5 doses, followed by 100 mg 3 times a day for 6 days. Alternatively, 100 mg is orally administered to the patient after meals 3 times a day for 5 to 7 days. After a week and a half of taking quinacrine daily, the patient's symptoms improve. […] The patient is released from the hospital and is told to stay in self-isolation for another week.

The test system of the next data set is COVID-19 and influenza. The data set can be described thus: Oral administration of quinacrine for prevention of COVID-19 and influenza (Example 5). It is filed as in vivo, human. The conditions noted are these: 300 mg orally twice a day for a month. On the procedure: The following example describes prevention strategies for COVID-19 and influenza involving an oral administration of Quinacrine.
A person wants to prevent getting sick during the upcoming winter season. Therefore, they schedule an appointment with their primary care physician to discuss their options. At the appointment, the doctor recommends taking a 300 mg pill of quinacrine orally twice a day for the next month.

The conditions of data set [5]: mice; 30 mg/kg daily oral gavage; after 28 d of treatment; cited from earlier work.

In the case of `CCN(CC)CCCC(C)Nc1c2ccc(Cl)cc2nc2ccc(OC)cc12` (centres unmarked) [quinacrine], the “reduction of CPE due to SARS-COV-2 / protection of infected cells from cytopathic effects” value with SARS-COV-2 was “more than 80%”. For the same compound, the “protection of infected cells from cytopathic effects caused by Influenza A (H1N1)” value in [1] was “more than 80%”. Also, in the data set on RET G-quadruplex, the “amount of arrested product (stop product by G-quadruplex)” value is given as “dose-dependent increase”. In addition, the “positive CD peak at 262 nm (parallel G-quadruplex structure)” value in the data set on RET G4 (in the presence of quinacrine) is reported as “not affected”. For the same compound, the “melting temperature (Tm) of the RET G4 structure” value in the data set on RET G4 (quinacrine 5 equivalent, increasing temperatures) was “significantly increased”. The “absorbance intensity at 350 nm and 450 nm bands on addition of G4 RNA” value in data set [2] was “decreased”. The side effects result was “No side effects” in the data set on COVID-19 [3] (intravenous quinacrine, patient); “No side effects” in the data set with COVID-19 [4] (oral quinacrine, patient); “No side effects” in the data set with COVID-19 and influenza. Also, the clinical outcome in the data set with COVID-19 [3] (person, intravenous 200 mg every 6 hours for 5 doses, then 100 mg 3 times a day for 6 days, after a week) was “tests negative for COVID-19”; with COVID-19 [4] (person, oral 200 mg every 6 hours for 5 doses, then 100 mg 3 times a day for 6 days) it was “tests negative for COVID-19”. Moreover, in the data set on COVID-19 and influenza (person), the prevention outcome was “without getting sick”. Besides, in [5], the “mean concentration in whole blood” value was 470 ng/mL. Further, the mean lung concentration in data set [5] is given as 2600 ng/mL.
